IC50 data for 30 molecules are collected here from patent publication US10927105B1 (Lundbeck La Jolla Research Center, Inc., priority 2017, dated 2021).

In general, IC50 refers to the concentration that inhibits the measured activity by half.

The target in the assay is MAGL (Homo sapiens (Human), UniProt Q99685). Description: In vitro competitive activity-based protein profiling (human prefrontal cortex membrane fractions, FP-Rh probe), MAGL band. Conditions: read-out: MAGL IC50 (μM) (human); human prefrontal cortex membrane fractions.
Sequence of MAGL (Q99685 whole entry): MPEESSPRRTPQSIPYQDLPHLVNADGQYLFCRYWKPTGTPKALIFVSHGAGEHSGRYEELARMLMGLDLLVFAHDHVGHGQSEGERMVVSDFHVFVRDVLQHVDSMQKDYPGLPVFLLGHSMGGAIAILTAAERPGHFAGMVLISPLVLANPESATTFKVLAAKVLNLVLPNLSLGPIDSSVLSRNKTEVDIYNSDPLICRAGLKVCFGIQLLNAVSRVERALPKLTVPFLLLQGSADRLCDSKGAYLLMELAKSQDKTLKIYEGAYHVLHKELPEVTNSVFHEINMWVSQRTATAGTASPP
Protocol: Biological Evaluation In Vitro Competitive Activity-Based Protein Profiling.
Proteomes (mouse brain membrane fraction for mouse assays; human prefrontal cortex membrane fractions for human assays) (50 mL, 1.0 mg/mL total protein concentration) were preincubated with varying concentrations of inhibitors at 37° C. After 30 min, FP-Rh (1.0 mL, 50 mM in DMSO) was added and the mixture was incubated for another 30 min at 37° C. Reactions were quenched with SDS loading buffer (15 μL-4×) and run on SDS-PAGE.
For the molecule `O=C(O)c1ccn(C(=O)N2CCN(Cc3ccc(Oc4ccc(Cl)cc4)cc3)CC2)n1` [Example 45, 1-(4-(4-(4-chlorophenoxy)-benzyl)piperazine-1-carbonyl)-1H-pyrazole-3-carboxylic acid], the half-inhibitory concentration (IC50) is < 0.1 µM.
To `CNC(=O)c1ccn(C(=O)N2CCC3(CCN(Cc4cc(Cl)cc(C(F)(F)F)c4)C3)C2)n1` (stereo not drawn) [Example 435, 1-(7-(3-chloro-5-(trifluoromethyl)-benzyl)-2,7-diazaspiro[4.4]-nonane-2-carbonyl)-N-methyl-1H-pyrazole-3-carboxamide] belongs < 0.1 µM; to `O=C(O)c1nn(C(=O)N2CCC3(CCN(Cc4cc(Cl)cc(C(F)(F)F)c4)C3)CC2)cc1Cl` [Example 388, 4-chloro-1-(2-(3-chloro-5-(trifluoromethyl)-benzyl)-2,8-diazaspiro-[4.5]decane-8-carbonyl)-1H-pyrazole-3-carboxylic acid], < 0.1 µM.
On to `O=C(O)c1ccn(C(=O)N2CCN(Cc3ccc(C(F)(F)F)cc3N3CC4CCC(C3)O4)CC2)n1` [Example 380, 1-(4-(2-(8-oxa-3-azabicyclo[3.2.1]-octan-3-yl)-4-(trifluoromethyl)-benzyl)piperazine-1-carbonyl)-1H-pyrazole-3-carboxylic acid], for which the IC50 was < 0.1 µM.
Consider `O=C(O)c1ccn(C(=O)N2CCN(Cc3cccc(Oc4ccc(F)cc4)c3)CC2)n1` [Example 51, 1-(4-(3-(4-fluorophenoxy)-benzyl)piperazine-1-carbonyl)-1H-pyrazole-3-carboxylic acid], for which the IC50 was < 0.1 µM.
For `C[C@H]1C[C@H](N(C)Cc2cccc(C(F)(F)F)c2)CCN1C(=O)n1ccc(C(N)=O)n1` [Example 259, 1-((2S,4R)-2-methyl-4-(methyl(3-(trifluoromethyl)-benzyl)amino)-piperidine-1-carbonyl)-1H-pyrazole-3-carboxamide], the IC50 was < 0.1 µM.
To `O=C(O)c1ccn(C(=O)N2CCC3(CCN(Cc4ccc(-c5ccccc5)cc4C(F)(F)F)C3)CC2)n1` [Example 170, 1-(2-((3-(trifluoromethyl)-[1,1′-biphenyl]-4-yl)methyl)-2,8-diazaspiro[4.5]-decane-8-carbonyl)-1H-pyrazole-3-carboxylic acid] belongs < 0.1 µM.
The same measure for `O=C(O)c1ccn(C(=O)N2CCC3(CCN(Cc4cc(Cl)ccc4C(F)(F)F)CC3)CC2)n1` [Example 217, 1-(9-(5-chloro-2-(trifluoromethyl)-benzyl)-3,9-diazaspiro[5.5]-undecane-3-carbonyl)-1H-pyrazole-3-carboxylic acid]: < 0.1 µM.
With `O=C(O)c1ccn(C(=O)N2C[C@H]3C[C@H](Oc4cccc(-c5nccs5)c4)C[C@H]3C2)n1` [Example 261, 1-(trans-5-(3-(thiazol-2-yl)phenoxy)-octahydrocyclopenta-[c]pyrrole-2-carbonyl)-1H-pyrazole-3-carboxylic acid], the IC50 is < 0.1 µM.
In the case of `O=C(O)c1nn(C(=O)N2CCC3(CCN(Cc4cc(Cl)ccc4C(F)(F)F)C3)CC2)cc1Cl` [Example 133, 4-chloro-1-(2-(5-chloro-2-(trifluoromethyl)-benzyl)-2,8-diazaspiro[4.5]-decane-8-carbonyl)-1H-pyrazole-3-carboxylic acid], the IC50 is < 0.1 µM.
`CN(Cc1cc(Cl)ccc1C(F)(F)F)C1CCN(C(=O)n2cc(Cl)c(C(=O)O)n2)CC1` [Example 112, 4-chloro-1-(4-((5-chloro-2-(trifluoromethyl)-benzyl)-(methyl)amino)-piperidine-1-carbonyl)-1H-pyrazole-3-carboxylic acid]: the 50% inhibitory concentration (IC50) is < 0.1 µM.
As for `O=C(O)c1ccn(C(=O)N2CCN(Cc3ccc(C(F)(F)F)cc3N3CCOCC3)CC2)n1` [Example 3, 1-(4-(2-Morpholino-4-(trifluoromethyl)benzyl)piperazine-1-carbonyl)-1H-pyrazole-3-carboxylic Acid], the IC50 is < 0.1 µM.
Take `O=C(O)c1nn(C(=O)N2CCC3(CC2)CN(Cc2cc(Cl)ccc2C(F)(F)F)C3)cc1Cl` [Example 134, 4-chloro-1-(2-(5-chloro-2-(trifluoromethyl)-benzyl)-2,7-diazaspiro[3.5]-nonane-7-carbonyl)-1H-pyrazole-3-carboxylic acid]: the half-maximal inhibitory concentration (IC50) was < 0.1 µM.
As for `CNC(=O)c1ccn(C(=O)N2C[C@H]3C[C@@H](N(C)Cc4ccc(C(F)(F)F)cc4)C[C@H]3C2)n1` [Example 439, N-methyl-1-(cis-5-(methyl(4-(trifluoromethyl)-benzyl)amino)-octahydrocyclopenta-[c]pyrrole-2-carbonyl)-1H-pyrazole-3-carboxamide], the concentration for half-maximal inhibition (IC50) was < 0.1 µM.
In the case of `O=C(O)c1ccn(C(=O)N2CCC3(CCN(Cc4cc(N5CCCC5)ccc4C(F)(F)F)C3)CC2)n1` [Example 391, 1-(2-(5-(pyrrolidin-1-yl)-2-(trifluoromethyl)-benzyl)-2,8-diazaspiro[4.5]-decane-8-carbonyl)-1H-pyrazole-3-carboxylic acid], the IC50 was < 0.1 µM.
For `O=C(O)c1ccn(C(=O)N2CC3CN(Cc4cc(Cl)cc(C(F)(F)F)c4)CC3C2)n1` (stereo not drawn) [Example 124, 1-(5-(3-chloro-5-(trifluoromethyl)-benzyl)-octahydropyrrolo-[3,4-c]pyrrole-2-carbonyl)-1H-pyrazole-3-carboxylic acid], the IC50 was < 0.1 µM.
For `O=C(O)c1nn(C(=O)N2C[C@H]3C[C@H](OCc4cc(F)cc(Cl)c4)C[C@H]3C2)cc1Cl` [Example 296, 4-chloro-1-(trans-5-((3-chloro-5-fluorobenzyl)oxy)-octahydrocyclopenta-[c]pyrrole-2-carbonyl)-1H-pyrazole-3-carboxylic acid], the IC50 is < 0.1 µM.
To `O=C(O)c1ccn(C(=O)N2C[C@H]3C[C@H](Oc4cccc(-c5cccnc5)c4)C[C@H]3C2)n1` [Example 241, 1-(trans-5-(3-(pyridin-3-yl)phenoxy)-octahydrocyclopenta-[c]pyrrole-2-carbonyl)-1H-pyrazole-3-carboxylic acid] belongs < 0.1 µM; to `O=C(O)c1ccn(C(=O)N2C[C@H]3C[C@H](Oc4ccc(-c5ccccc5)cc4)C[C@H]3C2)n1` [Example 240, 1-(trans-5-([1,1′-biphenyl]-4-yloxy)-octahydrocyclopenta-[c]pyrrole-2-carbonyl)-1H-pyrazole-3-carboxylic acid], < 0.1 µM.
On to `CC(C)c1ccccc1O[C@H]1C[C@@H]2CN(C(=O)n3ccc(C(=O)O)n3)C[C@@H]2C1` [Example 221, 1-(trans-5-(2-isopropylphenoxy)-octahydrocyclopenta-[c]pyrrole-2-carbonyl)-1H-pyrazole-3-carboxylic acid], for which the concentration for half-maximal inhibition (IC50) is < 0.1 µM.
The same measure for `O=C(O)c1ccn(C(=O)N2C[C@H]3C[C@@H](Oc4cccc(-c5ccccc5)c4)C[C@H]3C2)n1` [Example 164, 1-(cis-5-([1,1′-biphenyl]-3-yloxy)-octahydrocyclopenta-[c]pyrrole-2-carbonyl)-1H-pyrazole-3-carboxylic acid]: < 0.1 µM; for `Cc1cn(C(=O)N2C[C@H]3C[C@H](OCc4cccc(C(F)(F)F)c4)C[C@H]3C2)nc1C(=O)O` [Example 290, 4-methyl-1-(trans-5-((3-(trifluoromethyl)-benzyl)oxy)-octahydrocyclopenta-[c]pyrrole-2-carbonyl)-1H-pyrazole-3-carboxylic acid]: < 0.1 µM; for `C[C@@H]1CN(Cc2cc(Cl)cc(C(F)(F)F)c2)CCN1C(=O)n1ccc(C(N)=O)n1` [Example 272, (R)-1-(4-(3-chloro-5-(trifluoromethyl)-benzyl)-2-methylpiperazine-1-carbonyl)-1H-pyrazole-3-carboxamide]: < 0.1 µM.
In the case of `CC(C)(O)COc1cccc(O[C@H]2C[C@@H]3CN(C(=O)n4ccc(C(=O)O)n4)C[C@@H]3C2)c1Cl` [Example 451, 1-(trans-5-(2-chloro-3-(2-hydroxy-2-methylpropoxy)-phenoxy)-octahydrocyclopenta-[c]pyrrole-2-carbonyl)-1H-pyrazole-3-carboxylic acid], the concentration for half-maximal inhibition (IC50) was < 0.1 µM.
For `O=C(O)c1nn(C(=O)N2C[C@H]3C[C@H](OCc4cccc(C(F)(F)F)c4)C[C@H]3C2)cc1Cl` [Example 314, 4-chloro-1-(trans-5-((3-(trifluoromethyl)-benzyl)oxy)-octahydrocyclopenta-[c]pyrrole-2-carbonyl)-1H-pyrazole-3-carboxylic acid], the concentration for half-maximal inhibition (IC50) was < 0.1 µM.
On to `C[C@@H]1C[C@H](N(C)Cc2cccc(C(F)(F)F)c2)CCN1C(=O)n1ccc(C(N)=O)n1` [Example 257, 1-((2R,4R)-2-methyl-4-(methyl(3-(trifluoromethyl)-benzyl)amino)-piperidine-1-carbonyl)-1H-pyrazole-3-carboxamide], for which the IC50 is < 0.1 µM.
To `O=C(O)c1nn(C(=O)N2CCN(Cc3cc(F)cc(Oc4ccc(Cl)cc4)c3)CC2)cc1Cl` [Example 378, 4-chloro-1-(4-(3-(4-chlorophenoxy)-5-fluorobenzyl)-piperazine-1-carbonyl)-1H-pyrazole-3-carboxylic acid] belongs < 0.1 µM; to `CNC(=O)c1ccn(C(=O)N2CC3CN(Cc4ccc(Cl)cc4)CC3C2)n1` (stereo not drawn) [Example 424, 1-(5-(4-chlorobenzyl)-octahydropyrrolo-[3,4-c]pyrrole-2-carbonyl)-N-methyl-1H-pyrazole-3-carboxamide], < 0.1 µM.
With `NC(=O)c1ccn(C(=O)N2CCC3(CCCN3C(=O)c3cc4ccc(C(F)(F)F)cc4s3)CC2)n1` [Example 389, 1-(1-(6-(trifluoromethyl)-benzo-[b]thiophene-2-carbonyl)-1,8-diazaspiro-[4.5]decane-8-carbonyl)-1H-pyrazole-3-carboxamide], the IC50 is < 0.1 µM.
As to `O=C(O)c1ccn(C(=O)N2C[C@H]3C[C@H](OCc4cc(F)cc(Cl)c4)C[C@H]3C2)n1` [Example 53, 1-(trans-5-((3-chloro-5-fluorobenzyl)oxy)-octahydrocyclopenta-[c]pyrrole-2-carbonyl)-1H-pyrazole-3-carboxylic acid], the IC50 is < 0.1 µM.
